# Measured values from patent EP3502102A1, “STING INHIBITORS” (ECOLE POLYTECHNIQUE FEDERALE DE LAUSANNE (EPFL), priority 2017, dated 2019).
# Experiments:
# Solubility (comparison) = format: physicochemical
# STING [1] = target: T1, STING (Mus musculus, UniProt Q3TBT3); assay: CMA-induced serum cytokines in mice; format: in vivo, C57BL/6 mice; set-up: tissue Jackson Laboratories 000664; host or cells: whole animal, C57BL/6J mice; conditions: pre-treated 1 h or 4 h before i.p. CMA; serum 4 h later
# T1 sequence (Q3TBT3 1-378): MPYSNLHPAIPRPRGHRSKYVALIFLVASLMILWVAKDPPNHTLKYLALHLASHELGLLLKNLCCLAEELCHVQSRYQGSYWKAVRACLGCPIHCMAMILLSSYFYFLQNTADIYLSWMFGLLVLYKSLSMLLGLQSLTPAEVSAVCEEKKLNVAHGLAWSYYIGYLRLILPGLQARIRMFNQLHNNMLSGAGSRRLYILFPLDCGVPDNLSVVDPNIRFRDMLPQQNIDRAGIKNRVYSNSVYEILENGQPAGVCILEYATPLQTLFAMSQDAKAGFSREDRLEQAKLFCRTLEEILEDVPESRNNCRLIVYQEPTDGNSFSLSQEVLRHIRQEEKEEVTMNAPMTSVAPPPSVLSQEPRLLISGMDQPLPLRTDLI
# STING [2] = target: T1, STING; assay: Metabolic labelling with [3H] palmitate, Flag-STING in HEK293T cells; format: cell-based; set-up: expressed in transfected cells; host or cells: HEK293T; conditions: HEK293T expressing Flag-STING; 1 µM; CMA 2 h
# Procedure: Reporter activity was measured 16 h after compound treatment. A nonlinear regression analysis was performed. […] Circles indicate substitutes compared to C-176. d, e, Chemical compounds from (c) were tested at 0.5 µM for inhibitory activity in HEK293T cells transfected with STING (e) or RIG-I (f) in conjunction with IFN-• luciferase reporter, respectively. b, e, f, Values of inhibitor-treated cells were normalized to DMSO-treated cells. […] Cytokine levels were normalized to DMSO-treated control cells. A nonlinear regression analysis was performed for cGAMP stimulation. b, c, BMDMs were pre-treated with C-178 (0.25 µM) and stimulated with cGAMP, cyclic di-GMP, CMA, 90mer dsDNA or LPS for 3 h. The induction of Ifnb1 mRNA levels was assessed by RT-qPCR. d, Heatmaps of RNA sequencing analysis of BMDMs treated with DMSO or CMA and with or without addition of C-178. […] Reporter activity was measured 16 h after transfection and values were normalized to DMSO-treated control cells. c, BMDMs were treated with C-178 (0.25 µM) for 1 h, washed or left untreated and after an additional hour stimulated with cGAMP. […] Flag-STING was immunoprecipitated from whole cell lysate and analysed by autoradiography. In parallel, cell lysates were analysed by immunoblotting for p-TBK1 and STING. d, HEK293T cells expressing STING were treated as indicated (C-178 (1 µM)) and stimulated with CMA for 1.5 h. […]
# STING [3] = target: T1, STING; assay: Flag immunoprecipitation, recruitment of TBK1 to STING; format: cell-based; set-up: expressed in transfected cells; host or cells: HEK293T; conditions: HEK293T expressing Flag-STING; 1 µM; CMA 2 h
# TBK1 = target: T2, TBK1 (Homo sapiens, UniProt Q9UHD2); assay: IFN-beta luciferase reporter in HEK293T cells transfected with TBK1; format: cell-based; conditions: 0.01-5µM
# T2 construct: expressed in transfected cells; host or cells: HEK293T
# T2 sequence (Q9UHD2 1-729): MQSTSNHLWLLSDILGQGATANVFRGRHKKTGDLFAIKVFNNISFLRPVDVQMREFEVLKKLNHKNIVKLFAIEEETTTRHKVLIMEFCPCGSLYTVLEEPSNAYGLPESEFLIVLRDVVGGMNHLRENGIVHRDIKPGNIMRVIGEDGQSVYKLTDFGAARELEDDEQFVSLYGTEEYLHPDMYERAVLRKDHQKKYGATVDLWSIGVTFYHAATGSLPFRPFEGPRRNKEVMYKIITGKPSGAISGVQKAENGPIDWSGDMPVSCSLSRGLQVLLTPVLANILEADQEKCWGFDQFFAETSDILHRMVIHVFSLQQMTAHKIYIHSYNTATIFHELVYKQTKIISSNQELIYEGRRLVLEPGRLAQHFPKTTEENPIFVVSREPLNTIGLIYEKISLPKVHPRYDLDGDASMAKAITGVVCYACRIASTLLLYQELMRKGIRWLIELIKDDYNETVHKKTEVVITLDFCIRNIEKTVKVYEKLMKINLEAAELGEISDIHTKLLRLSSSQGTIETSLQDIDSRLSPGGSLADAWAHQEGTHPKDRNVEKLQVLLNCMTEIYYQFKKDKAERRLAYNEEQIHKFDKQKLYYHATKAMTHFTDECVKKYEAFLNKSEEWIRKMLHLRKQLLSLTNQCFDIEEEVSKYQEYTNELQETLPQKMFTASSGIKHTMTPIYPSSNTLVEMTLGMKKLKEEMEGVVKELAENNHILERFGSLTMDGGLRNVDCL
smiles,measurement,setting,value
"O=C(Nc1ccc(I)cc1)c1ccc([N+](=O)[O-])o1 [C-176, N-(4-iodophenyl)-5-nitro-2-furamide]",serum concentration of type I IFNs,"Trex1 KO mice; TREX1 KO mice, compared to vehicle, 11 days",significant decrease
same,histological analysis of the heart,"Trex1 KO mice; TREX1 KO mice, 11 days",decreased cellularity
same,overt toxicity (weight changes),"Trex1 KO mice; mouse, in vivo",no signs of overt toxicity
same,solubility relative to C-178,Solubility (comparison),improved solubility
same,increase in serum concentration of IL-6,STING [1],completely abrogated
same,increase in serum concentration of type I IFNs,STING [1],completely abrogated
same,[^3H] palmitate labelling of STING,STING [2],inhibited
same,recruitment of TBK1,STING [3],block
same,TBK1-driven IFN induction,TBK1,neither RIG-I nor TBK1-driven IFN induction was affected
